This experiment addresses T1, USP28 (His-tagged USP28-FL-mammalian) (Homo sapiens, UniProt Q96RU2).
T1 construct: Expression of USP28 (1-1077)-TEV-6*His (pTT5 vector); made in house; host or cells: Expi293f cells (pTT5 vector)
T1 sequence (Q96RU2 1-1077): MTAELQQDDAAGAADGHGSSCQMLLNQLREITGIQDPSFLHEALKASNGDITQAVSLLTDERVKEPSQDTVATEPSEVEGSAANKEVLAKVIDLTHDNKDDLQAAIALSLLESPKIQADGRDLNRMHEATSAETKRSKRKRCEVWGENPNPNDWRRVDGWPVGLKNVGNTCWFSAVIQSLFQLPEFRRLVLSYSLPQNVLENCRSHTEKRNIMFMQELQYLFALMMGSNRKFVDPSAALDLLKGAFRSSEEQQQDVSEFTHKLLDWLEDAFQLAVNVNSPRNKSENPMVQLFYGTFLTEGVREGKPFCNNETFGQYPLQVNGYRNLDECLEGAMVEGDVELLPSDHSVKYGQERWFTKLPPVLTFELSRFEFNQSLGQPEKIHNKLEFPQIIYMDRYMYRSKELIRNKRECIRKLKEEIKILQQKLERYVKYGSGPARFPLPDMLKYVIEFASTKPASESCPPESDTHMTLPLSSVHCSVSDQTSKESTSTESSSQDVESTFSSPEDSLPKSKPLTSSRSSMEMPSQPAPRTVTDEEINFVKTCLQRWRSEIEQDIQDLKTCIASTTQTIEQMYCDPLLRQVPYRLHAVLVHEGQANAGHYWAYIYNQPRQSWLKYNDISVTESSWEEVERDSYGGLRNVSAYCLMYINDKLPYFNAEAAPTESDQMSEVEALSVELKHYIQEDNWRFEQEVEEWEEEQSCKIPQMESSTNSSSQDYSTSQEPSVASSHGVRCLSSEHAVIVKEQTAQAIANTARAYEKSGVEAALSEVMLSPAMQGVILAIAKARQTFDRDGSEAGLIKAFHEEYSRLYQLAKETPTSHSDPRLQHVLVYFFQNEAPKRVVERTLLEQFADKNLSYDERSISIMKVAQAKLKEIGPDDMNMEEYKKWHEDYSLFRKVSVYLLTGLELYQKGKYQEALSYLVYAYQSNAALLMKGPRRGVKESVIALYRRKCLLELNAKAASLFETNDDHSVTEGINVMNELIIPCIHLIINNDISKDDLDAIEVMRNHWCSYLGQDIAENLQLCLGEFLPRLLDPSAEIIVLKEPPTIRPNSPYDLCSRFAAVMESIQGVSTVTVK
Nature of the experiment: Ubiquitin-Rhodamine 110 Assay for USP28 Activity, Example A-1(a). Format: biochemical. As to conditions: Ubiquitin-Rhodamine 110 assay, format Example A-1(a); read-out: USP28 A-1(a) IC50 range. The method in brief: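 Full-length His-tagged human USP28 (1-1077, Expi293f-expressed), […], with 25 nM Ub-Rh110 (<<Km) in pH 8.0 Tris buffer with BME, BGG, Triton X-100. 10-point dilutions (25 μM-1.3 nM), 45 min at room temperature, citric acid stop, fluorescence 485/535 nm; IC50 by 4-parameter fit.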

Results on eleven compounds are retold here after patent US11524966B1 (Valo Early Discovery, Inc., priority 2017, dated 2022).

By IC50 is commonly meant the concentration that gives 50% inhibition.

With `Cc1ccc2c(N)c(C(=O)N[C@H]3COc4cc(N5CCNCC5)c(Cl)cc4C3)sc2n1` [Example 13-5, (R)-3-amino-N-(6-chloro-7-(piperazin-1-yl)chroman-3-yl)-6-methylthieno[2,3-b]pyridine-2-carboxamide], the half-maximal inhibitory concentration (IC50) was over 2000 nM. Then `Cc1ccc2c(N)c(C(=O)N[C@@H]3COc4c(ccc(N5CCNCC5)c4Cl)C3)sc2n1` [Example 13-8, (S)-3-amino-N-(8-chloro-7-(piperazin-1-yl)chroman-3-yl)-6-methylthieno[2,3-b]pyridine-2-carboxamide], with 200 to 2000 nM; and `Cc1ccc2c(N)c(C(=O)N[C@H]3COc4c(ccc(N5CCNCC5)c4Cl)C3)sc2n1` [Example 13_7, (R)-3-amino-N-(8-chloro-7-(piperazin-1-yl)chroman-3-yl)-6-methylthieno[2,3-b]pyridine-2-carboxamide], with 1 to 50 nM; and `Cc1ccc2c(N)c(C(=O)N[C@H]3COc4cc(N5CCNCC5)ncc4C3)sc2n1` [Example 16, (R)-3-Amino-6-methyl-N-(7-(piperazin-1-yl)-3,4-dihydro-2H-pyrano[3,2-c]pyridin-3-yl)thieno[2,3-b]pyridine-2-carboxamide], with 1 to 50 nM. `Cc1ccc2c(N)c(C(=O)N[C@H]3COc4cc(N5CC6CCC(C5)N6)nc(F)c4C3)sc2n1` [Example 17, N-((3R)-7-(3,8-Diazabicyclo[3.2.1]octan-3-yl)-5-fluoro-3,4-dihydro-2H-pyrano[3,2-c]pyridin-3-yl)-3-amino-6-methylthieno[2,3-b]pyridine-2-carboxamide]: the IC50 is 1 to 50 nM. Take `Cc1ccc2c(N)c(C(=O)N[C@H]3COc4c(cnc(N5CC6CCC(C5)N6)c4F)C3)sc2n1` [Example 18, N-((3R)-7-(3,8-Diazabicyclo[3.2.1]octan-3-yl)-8-fluoro-3,4-dihydro-2H-pyrano[3,2-c]pyridin-3-yl)-3-amino-6-methylthieno[2,3-b]pyridine-2-carboxamide]: the IC50 was 1 to 50 nM.

Regarding `Cc1ccc2c(N)c(C(=O)N[C@H]3COc4nc(N5CCNCC5)ccc4C3)sc2n1` [Example 19, (R)-3-Amino-6-methyl-N-(7-(piperazin-1-yl)-3,4-dihydro-2H-pyrano[2,3-b]pyridin-3-yl)thieno[2,3-b]pyridine-2-carboxamide], the IC50 was 50 to 200 nM. On to `Cc1ccc2c(N)c(C(=O)N[C@H]3COc4nc(N5CCNCC5)c(F)cc4C3)sc2n1` [Example 20, (R)-3-Amino-N-(6-fluoro-7-(piperazin-1-yl)-3,4-dihydro-2H-pyrano[2,3-b]pyridin-3-yl)-6-methylthieno[2,3-b]pyridine-2-carboxamide], for which the IC50 was 50 to 200 nM. Consider `CO[C@H]1CN(c2ccc3c(n2)CC[C@H](NC(=O)c2sc4nc(C)cc(C)c4c2N)C3)C[C@@H]1N` [Example 23-3, 3-amino-N-[(6S)-2-[(3S,4S)-3-amino-4-methoxypyrrolidin-1-yl]-5,6,7,8-tetrahydroquinolin-6-yl]-4,6-dimethylthieno[2,3-b]pyridine-2-carboxamide], for which the IC50 is 50 to 200 nM. Consider `CO[C@H]1CN(c2ccc3c(n2)CC[C@H](NC(=O)c2sc4nc(C)ccc4c2N)C3)C[C@@H]1N` [Example 23-4, 3-amino-N-[(6S)-2-[(3S,4S)-3-amino-4-methoxypyrrolidin-1-yl]-5,6,7,8-tetrahydroquinolin-6-yl]-6-methylthieno[2,3-b]pyridine-2-carboxamide], for which the IC50 lay within 50 to 200 nM. As for `CO[C@H]1CN(c2ccc3c(n2)CC[C@@H](NC(=O)c2sc4nc(C)ccc4c2N)C3)C[C@@H]1N` [Example 23-5, 3-amino-N-[(6R)-2-[(3S,4S)-3-amino-4-methoxypyrrolidin-1-yl]-5,6,7,8-tetrahydroquinolin-6-yl]-6-methylthieno[2,3-b]pyridine-2-carboxamide], the IC50 fell in the range of 200 to 2000 nM.
